Assay results as given in patent US7892830B2, “Clonal culture of human pluripotent stem cells” (Wisconsin Alumni Research Foundation, priority 2007, dated 2011).
Structures can show the parent of a compound that is named as a salt.

Tests used:
PKC = conditions: cited from earlier work
PKA = conditions: cited from earlier work
H1 human ES cells [1] = experiment: 6-well cloning efficiency assay in TeSR1 medium on Matrigel, colonies counted manually; assay type: cell-based; conditions: for max. CE (%): cloning efficiency = CFU per number of plated single cells; for confirmation in 6-well assay as active in increasing cloning efficiency: 6-well plates, varying concentrations
Description: As described above, a difficulty in growing pluripotent cells, like ES cells, in culture is their low cloning efficiency. As used herein, “cloning efficiency” means a number of cells individualized by trypsin that form new ES cell colonies divided by the number of individual cells plated in a well of a culture dish. In our prior experience with growing human ES cells in defined and animal-free conditions on a matrix (e.g., Matrigel®), cloning efficiency was very low (i.e., less than 0.1%). This contrasts with prior experience using culture systems based on medium conditioned by exposure to fibroblasts, where the cloning efficiency, while still low (i.e., less than 2%), was high enough to initiate clonal ES cell colonies. As disclosed herein, the addition of a small molecule to the culture medium in which human ES cells are grown permits the ES cell cultures to be clonally cultivated in a manner that is extremely difficult without the addition of the small molecule. Several small molecules are exemplified herein for this purpose.
For these assays, 10,000 cells per well were plated on Matrigel®—coated plates and then treated every other day for a total of four days. with the small molecules as described above. To evaluate the effect of the tested small molecules on cloning efficiency, we manually counted colonies after 10 days.
We determined cloning efficiency (CE; the number of colony forming units (CFU) per number of plated single cells, trypsin/EDTA treated). HA-100 was the first molecule identified in the small molecule screen, following which other structurally similar small molecules were also tested for cloning efficiency.

PKG = conditions: cited from earlier work
H1 human ES cells [2] = experiment: Example 2 colony formation with ROCK inhibitors, ALP assay and examination by eye; assay type: cell-based; conditions: for concentration showing the most colony formation with the ALP assay: tested 5 nM to 20 μM, TeSR1, Matrigel
Method: The experiments described in Example 1 were repeated with H-1152 (EMD Chemicals, Inc./Calbiochem; San Diego, Calif.) and Y-27632 (EMD Chemicals, Inc./Calbiochem). Briefly, H-1152 or Y-27632 was dissolved in DMSO to a concentration of 20 mM. H1 human ES cells were grown on Matrigel®—coated plates in TeSR™1 medium at a density of 100,000 cells per ml. H-1152 and Y-27632 were added to wells on their own plates at a final concentration of 20 μM, 15 μM, 10 μM or 5 μM in DMSO. DMSO and HA-100 (10 μM) were used as the negative and positive controls, respectively. The plates were treated every other day for a total of four days. Colony formation was detected with the ALP assay described above.
In a second experiment, H-1152 and Y-27632 were added to wells on their own plates at a final concentration of 5 μM, 500 nM, 50 nM or 5 nM in DMSO. DMSO and HA-100 (10 μM) were used as the negative and positive controls, respectively. The plates were treated as described above.

ROCK1/ROCK2 = conditions: read-out: IC50 ROCK1/ROCK2; competing with ATP; cited from earlier work
Oct4 = Oct4 immunofluorescence of cloned colonies; assay type: cell-based, human; conditions: colonies from HA-100 treatment
Description: We also tested the resulting colonies from HA-100 treatment for the presence of Oct4, an intracellular marker for pluripotent ES cells.

human ES cells [3] = experiment: Cloning efficiency in conditioned medium (CM); assay type: cell-based; conditions: CM substituted for TeSR1, otherwise identical treatment
Method: (§1) We have also tested these small molecules for effects on human ES cell cloning on other medium. We tested the effect on conditioned medium (CM) substituting TeSR™1 medium with CM and otherwise identical treatment. The cloning efficiency of the medium increased with addition of HA-100. In addition, we performed a similar test with unconditioned medium to which 100 ng/μl of bFGF had been added.

H1 human ES cells [4] = experiment: Fluorometric high-throughput ALP (DiFMUP) screen for colony formation, 96-well; assay type: cell-based; conditions: 10 μM, 500 cells per well, TeSR1, a typical hit read above 200,000
Method: The screen was conducted using a fluorescent, high-throughput assay to screen small molecules for their ability to enhance cloning efficiency. A soluble, non-fluorescent substrate (6,8-difluoro-4-methylumbelliferyl phosphate, DiFMUP) was converted to a fluorescent product by an enzyme specific for undifferentiated, human ES cells called alkaline phosphatase (ALP).
In wells that had colonies larger than 2,000 cells, and which formed 12 days after seeding 500 individualized human ES cells in a 96-well plate, increased fluorescence from DiFMUP hydrolyzed by ALP indicated any well that contained a compound that enabled colony formation. […] Thus, this assay tested both for clonal propagation and for maintenance of undifferentiated status.
The screen used a small molecule library made up of characterized compounds with known bioactivity that was purchased from Sigma-Aldrich (St. Louis, Mo.). Members of the library were dissolved in DMSO to a concentration of 1 mM. All other chemicals used were purchased from Sigma, unless otherwise indicated in the text. H1 human ES cells (WiCell Research Institute; Madison, Wis.) were grown in the defined TeSR™1 medium, which was prepared as described in Ludwig et al., supra.
The assay was performed at the Keck-UWCCC Small Molecule Screening Facility (University of Wisconsin—Madison; Madison, Wis.) in 96-well microplates (Nunclon/Nunc; Roskilde, Denmark) using a Beckman Biomek® FX Laboratory Workstation and a Perkin Elmer VictorIII® Plate Reader. The microplates were coated with Matrigel® (#354230, growth factor reduced; BD Bioscience; San Jose, Calif.) at 0.3 mg/ml in DMEM/F12 (Invitrogen; Carlsbad, Calif.) for 1 hour at room temperature.
H1 human ES cells were grown in 6-well Nunclon® dishes to day 5, and then treated with 1 ml Trypsin/EDTA (Invitrogen) containing 1% chick serum for 5 minutes at 37° C. Trypsin was quenched with 20% FBS in DMEM/F12, and the cells were collected by centrifugation for 1.5 minutes at 200 RCF. After aspiration of the medium, cells were re-suspended in TeSR™1 medium to a density of 5,000 cells per ml. Of this cell suspension, 100 μL was dispensed into each well, and 1 μL of a […] DMSO solution of inhibitor was added and mixed by pipetting, resulting in a final inhibitor concentration of 10 μM. The plates were incubated at 5% CO2 at 37° C. for 2 days. Then, the medium was exchanged with TeSR™1 medium not having the cloning molecule. […]
To detect colony formation, we used a fluorometric, ALP assay (EnzChek®; Invitrogen). […] In wells that had colonies, increased fluorescence indicated any well containing a compound that led to colony formation. […] Plates were read by a multi-plate reader (excitation 355 nm, emission 455 nm, at 0.1 ms emission intervals).

human ES cells [5] = experiment: Cloning efficiency in unconditioned medium with added bFGF; assay type: cell-based; conditions: unconditioned medium with 100 ng/μl bFGF, compared to control cultures lacking HA-100
Method: as §1

Row | Molecule | IC50 (PKC) | IC50 (PKA) | max. CE (%) (H1 human ES cells [1]; TeSR1, Matrigel) | IC50 (PKG) | confirmation in 6-well assay as active in increasing cloning efficiency (H1 human ES cells [1]) | result of small molecule screen (colony formation, ALP fluorescence) (H1 human ES cells [4]) | also measured
1 | CC1CN(S(=O)(=O)c2cccc3cnccc23)CCN1 (centres unmarked) [iso H-7, 1-(5-isoquinolinesulfonyl)-3-methylpiperazine] | > 6 µM | > 3 µM | <1% | > 5.8 µM |  |  | 
2 | Cc1cncc2cccc(S(=O)(=O)N3CCCNC[C@@H]3C)c12 [H-1152, (S)-(+)-2-methyl-1-[(4-methyl-5-isoquinolinyl)sulfonyl]homopiperazine dihydrochloride] |  |  |  |  |  |  | colony formation by eye compared with HA-100 (at 10 μM) (H1 human ES cells [2]; concentrations above 500 nM): equal or better than HA-100; working concentration compared with HA-100 (H1 human ES cells [2]; facilitating clonal growth): ten times lower; concentration showing the most colony formation with the ALP assay (H1 human ES cells [2]): 500 nM
3 | C[C@@H](N)[C@H]1CC[C@H](C(=O)Nc2ccncc2)CC1 [Y-27632, (+)-(R)-trans-4-(1-aminoethyl)-N-(4-pyridyl)cyclohexanecarboxamide dihydrochloride] |  |  |  |  |  |  | IC50 (ROCK1/ROCK2): 0.8 µM; colony formation by eye compared with HA-100 (at 10 μM) (H1 human ES cells [2]; concentrations above 5 μM): equal or better than HA-100; concentration showing the most colony formation with the ALP assay (H1 human ES cells [2]): 5000 nM
4 | O=S(=O)(NCCNC/C=C/c1ccc(Br)cc1)c1cccc2cnccc12 [H-89, N-[2-p-bromo-cinnamylamino)ethyl]-5-isoquinolinesulfonamide dihydrochloride] | 31.7 µM |  | 2.5% | 0.48 µM |  |  | 
5 | O=S(=O)(c1cccc2cnccc12)N1CCNCC1 [HA-100, 1-(5-isoquinolinesulfonyl)piperazine hydrochloride] | 12 µM | 8 µM | 2% | 4 µM | confirmed | hits | Oct4 expression in cloned colonies (immunofluorescence) (Oct4): maintenance of Oct4 expression; effect on cloning efficiency in conditioned medium (human ES cells [3]): increased; effect on cloning efficiency in unconditioned medium (human ES cells [5]): increased cloning efficiency
6 | CC1(C)OC(=O)C=CC2(C)C1CC(O)C1(C)C2CCC2(C)C(c3ccoc3)OC(=O)C3OC321 (centres unmarked) [obacunol] |  |  |  |  | only HA-100 could be confirmed | hits | 
7 | CC(C)CCC[C@@H](C)[C@H]1CC[C@H]2C3=CC[C@H]4C[C@@H](O)CC[C@]4(C)[C@H]3CC[C@]12C [lathosterol] |  |  |  |  | only HA-100 could be confirmed | hits | 
8 | Cl.Cl.O=S(=O)(c1cccc2cnccc12)N1CCCNCC1 [HA-1077, 1-(5-isoquinolinesulfonyl)homopiperazine dihydrochloride] |  |  |  |  |  |  | effect on cloning efficiency of human ES cells (H1 human ES cells [1]; related small molecules tested after HA-100): increased cloning efficiency
9 | Cl.N=C(N)NCCNS(=O)(=O)c1cccc2cnccc12 [HA-1004, N-(2-guanidinoethyl)-5-isoquinolinesulfonamide hydrochloride] | 40 µM | 2.3 µM | <1% | 1.3 µM |  |  | CFU+ (concentration range with colony forming units) (H1 human ES cells [1]; 6-well plates, 10,000 cells per well, TeSR1, Matrigel, colonies counted after 10 days): >50.0 µM
10 | CC1CNCCN1S(=O)(=O)c1cccc2cnccc12 (centres unmarked) [H-7, 1-(5-isoquinolinesulfonyl)-2-methylpiperazine] | 6 µM | 3 µM | <1% | 5.8 µM |  |  | 
11 | quipazine dimaleate |  |  |  |  | only HA-100 could be confirmed | hits | 
